{"source": "patent US9832996B2", "about": "“Use of sarmentine and its analogues with an herbicide, and compositions thereof” (Marrone Bio Innovations, Inc., priority 2013, dated 2017)", "assay_type_in_all_cases": "in vivo", "details_in_all_cases": "14 days after application", "key": {"Poa annua [1]": {"system": "Poa annua", "assay": "Post-emergent spray of sarmentine and paclobutrazol on grass seedlings, fresh weight and Colby synergy", "procedure": "(§1) Post-emergent effects of sarmentine and paclobutrazol were evaluated on annual bluegrass (Poa annua), Kentucky bluegrass (Poa pratensis), and Creeping Bentgrass (Agrostis stolonifera). For each of the three species tested, fifteen seedlings at the 1-2 leaf stage, in 2.5 cm square pots containing plant growth mix, were sprayed with two suboptimal doses of sarmentine, two suboptimal doses of paclobutrazol, or a factorial combination thereof, as shown in Tables 1-3. A volume of 40 gal/Acre was applied, using a cabinet track sprayer. Negative controls were sprayed with water. Pots were randomly placed in a growth room at 25° C. and 50% relative humidity, and watered as necessary. Treatments were arranged in a 2 k factorial design with three repeat measures and evaluated for fresh weight at 14 days after application. Potential synergy was evaluated by calculating the ratio of observed (E) to expected (Ee) percent of control weight, according to Colby's formula. Colby (1967) Weeds 15:20-22. Percent control was calculated in relation to the untreated control (0% control) with 100% control denoting no living green tissue remaining at 14 days after treatment. An E/Ee score above 1.0 indicates a synergistic interaction between two substances."}, "Poa pratensis [2]": {"system": "Poa pratensis", "assay": "Post-emergent spray of sarmentine and paclobutrazol on grass seedlings, fresh weight and Colby synergy", "procedure": "as §1"}, "Agrostis stolonifera [3]": {"system": "Agrostis stolonifera", "assay": "Post-emergent spray of sarmentine and paclobutrazol on grass seedlings, fresh weight and Colby synergy", "procedure": "as §1"}, "Festuca arundinacea": {"system": "Festuca arundinacea", "assay": "Post-emergent spray of sarmentine and amicarbazone on grass seedlings, fresh weight and Colby synergy", "procedure": "as §1, with “and amicarbazone” for “and paclobutrazol”, “pratensis), Perennial ryegrass (Lolium perenne), Tall fescue (Festuca arundinacea)” for “pratensis),”, “the five” for “the three”, “of amicarbazone,” for “of paclobutrazol,”, “Tables 4-8.” for “Tables 1-3.”"}, "Poa annua [4]": {"system": "Poa annua", "assay": "Post-emergent spray of sarmentine and amicarbazone on grass seedlings, fresh weight and Colby synergy", "procedure": "as §1, with “and amicarbazone” for “and paclobutrazol”, “pratensis), Perennial ryegrass (Lolium perenne), Tall fescue (Festuca arundinacea)” for “pratensis),”, “the five” for “the three”, “of amicarbazone,” for “of paclobutrazol,”, “Tables 4-8.” for “Tables 1-3.”"}, "Poa pratensis [5]": {"system": "Poa pratensis", "assay": "Post-emergent spray of sarmentine and amicarbazone on grass seedlings, fresh weight and Colby synergy", "procedure": "as §1, with “and amicarbazone” for “and paclobutrazol”, “pratensis), Perennial ryegrass (Lolium perenne), Tall fescue (Festuca arundinacea)” for “pratensis),”, “the five” for “the three”, “of amicarbazone,” for “of paclobutrazol,”, “Tables 4-8.” for “Tables 1-3.”"}, "Lolium perenne": {"system": "Lolium perenne", "assay": "Post-emergent spray of sarmentine and amicarbazone on grass seedlings, fresh weight and Colby synergy", "procedure": "as §1, with “and amicarbazone” for “and paclobutrazol”, “pratensis), Perennial ryegrass (Lolium perenne), Tall fescue (Festuca arundinacea)” for “pratensis),”, “the five” for “the three”, “of amicarbazone,” for “of paclobutrazol,”, “Tables 4-8.” for “Tables 1-3.”"}, "Agrostis stolonifera [6]": {"system": "Agrostis stolonifera", "assay": "Post-emergent spray of sarmentine and amicarbazone on grass seedlings, fresh weight and Colby synergy", "procedure": "as §1, with “and amicarbazone” for “and paclobutrazol”, “pratensis), Perennial ryegrass (Lolium perenne), Tall fescue (Festuca arundinacea)” for “pratensis),”, “the five” for “the three”, “of amicarbazone,” for “of paclobutrazol,”, “Tables 4-8.” for “Tables 1-3.”"}, "[7]": {"details": "paclobutrazol 0.0467 mg/ml alone"}, "[8]": {"details": "paclobutrazol 0.293 mg/ml alone"}, "[9]": {"details": "paclobutrazol 0.042 mg/ml alone"}, "[10]": {"details": "paclobutrazol 0.481 mg/ml alone"}}, "data": [{"smiles": "CC(C)(C)[C@@H](O)[C@@H](Cc1ccc(Cl)cc1)n1cncn1", "note": "(racemic) [Paclobutrazol]", "values": [{"measurement": "% Control", "setting": "Poa annua [1]; paclobutrazol 0.84 mg/ml alone", "result": 20.8, "unit": "%"}, {"measurement": "AVG Fresh Weight", "setting": "Poa annua [1]; paclobutrazol 0.84 mg/ml alone", "result": 0.48, "unit": "g"}, {"measurement": "% Control", "setting": "Poa annua [1]; paclobutrazol 1.37 mg/ml alone", "result": 7.9, "unit": "%"}, {"measurement": "AVG Fresh Weight", "setting": "Poa annua [1]; paclobutrazol 1.37 mg/ml alone", "result": 0.55, "unit": "g"}, {"measurement": "% Control", "setting": "Poa pratensis [2]; [7]", "result": 14.2, "unit": "%"}, {"measurement": "AVG Fresh Weight", "setting": "Poa pratensis [2]; [7]", "result": 0.6, "unit": "g"}, {"measurement": "% Control", "setting": "Poa pratensis [2]; [8]", "result": 0.0, "unit": "%"}, {"measurement": "AVG Fresh Weight", "setting": "Poa pratensis [2]; [8]", "result": 0.7, "unit": "g"}, {"measurement": "% Control", "setting": "Agrostis stolonifera [3]; [9]", "result": 0.0, "unit": "%"}, {"measurement": "AVG Fresh Weight", "setting": "Agrostis stolonifera [3]; [9]", "result": 0.76, "unit": "g"}, {"measurement": "% Control", "setting": "Agrostis stolonifera [3]; [10]", "result": 2.3, "unit": "%"}, {"measurement": "AVG Fresh Weight", "setting": "Agrostis stolonifera [3]; [10]", "result": 0.65, "unit": "g"}]}, {"smiles": "CCCCC/C=C/C=C/C(=O)N1CCCC1", "note": "[Sarmentine, N-(2E,4E-Decadienoyl) pyrrolidine]", "values": [{"measurement": "% Control", "setting": "Festuca arundinacea; sarmentine 10.27 mg/ml alone", "result": 28.4, "unit": "%"}, {"measurement": "AVG Fresh Weight", "setting": "Festuca arundinacea; sarmentine 10.27 mg/ml alone", "result": 1.8, "unit": "g"}, {"measurement": "% Control", "setting": "Festuca arundinacea; sarmentine 33.98 mg/ml alone", "result": 40.4, "unit": "%"}, {"measurement": "AVG Fresh Weight", "setting": "Festuca arundinacea; sarmentine 33.98 mg/ml alone", "result": 1.5, "unit": "g"}, {"measurement": "% Control", "setting": "Poa annua [4]; sarmentine 12.47 mg/ml alone", "result": 10.3, "unit": "%"}, {"measurement": "Avg Fresh Weight", "setting": "Poa annua [4]; sarmentine 12.47 mg/ml alone", "result": 0.85, "unit": "g"}, {"measurement": "% Control", "setting": "Poa annua [4]; sarmentine 17.11 mg/ml alone", "result": 23.0, "unit": "%"}, {"measurement": "Avg Fresh Weight", "setting": "Poa annua [4]; sarmentine 17.11 mg/ml alone", "result": 0.73, "unit": "g"}, {"measurement": "% Control", "setting": "Poa pratensis [5]; sarmentine 19.15 mg/ml alone", "result": 9.6, "unit": "%"}, {"measurement": "AVG Fresh Weight", "setting": "Poa pratensis [5]; sarmentine 19.15 mg/ml alone", "result": 0.72, "unit": "g"}, {"measurement": "% Control", "setting": "Poa pratensis [5]; sarmentine 23.553 mg/ml alone", "result": 9.9, "unit": "%"}, {"measurement": "AVG Fresh Weight", "setting": "Poa pratensis [5]; sarmentine 23.553 mg/ml alone", "result": 0.72, "unit": "g"}, {"measurement": "% Control", "setting": "Lolium perenne; sarmentine 10 mg/ml alone", "result": 17.7, "unit": "%"}, {"measurement": "AVG Fresh Weight", "setting": "Lolium perenne; sarmentine 10 mg/ml alone", "result": 1.14, "unit": "g"}, {"measurement": "% Control", "setting": "Lolium perenne; sarmentine 20 mg/ml alone", "result": 10.6, "unit": "%"}, {"measurement": "AVG Fresh Weight", "setting": "Lolium perenne; sarmentine 20 mg/ml alone", "result": 1.24, "unit": "g"}, {"measurement": "% Control", "setting": "Agrostis stolonifera [6]; sarmentine 17.43 mg/ml alone", "result": 0.0, "unit": "%"}, {"measurement": "AVG Fresh Weight", "setting": "Agrostis stolonifera [6]; sarmentine 17.43 mg/ml alone", "result": 0.59, "unit": "g"}, {"measurement": "% Control", "setting": "Agrostis stolonifera [6]; sarmentine 24.72 mg/ml alone", "result": 30.8, "unit": "%"}, {"measurement": "AVG Fresh Weight", "setting": "Agrostis stolonifera [6]; sarmentine 24.72 mg/ml alone", "result": 0.48, "unit": "g"}, {"measurement": "% Control", "setting": "Poa annua [1]; sarmentine 12.47 mg/ml alone", "result": 0.0, "unit": "%"}, {"measurement": "AVG Fresh Weight", "setting": "Poa annua [1]; sarmentine 12.47 mg/ml alone", "result": 0.71, "unit": "g"}, {"measurement": "% Control", "setting": "Poa annua [1]; sarmentine 17.114 mg/ml alone", "result": 10.0, "unit": "%"}, {"measurement": "AVG Fresh Weight", "setting": "Poa annua [1]; sarmentine 17.114 mg/ml alone", "result": 0.54, "unit": "g"}, {"measurement": "% Control", "setting": "Poa pratensis [2]; sarmentine 19.15 mg/ml alone", "result": 11.3, "unit": "%"}, {"measurement": "AVG Fresh Weight", "setting": "Poa pratensis [2]; sarmentine 19.15 mg/ml alone", "result": 0.6, "unit": "g"}, {"measurement": "% Control", "setting": "Poa pratensis [2]; sarmentine 23.553 mg/ml alone", "result": 7.5, "unit": "%"}, {"measurement": "AVG Fresh Weight", "setting": "Poa pratensis [2]; sarmentine 23.553 mg/ml alone", "result": 0.7, "unit": "g"}, {"measurement": "% Control", "setting": "Agrostis stolonifera [3]; sarmentine 17.43 mg/ml alone", "result": 6.4, "unit": "%"}, {"measurement": "AVG Fresh Weight", "setting": "Agrostis stolonifera [3]; sarmentine 17.43 mg/ml alone", "result": 0.63, "unit": "g"}, {"measurement": "% Control", "setting": "Agrostis stolonifera [3]; sarmentine 24.72 mg/ml alone", "result": 20.6, "unit": "%"}, {"measurement": "AVG Fresh Weight", "setting": "Agrostis stolonifera [3]; sarmentine 24.72 mg/ml alone", "result": 0.53, "unit": "g"}]}, {"smiles": "CC(C)c1nn(C(=O)NC(C)(C)C)c(=O)n1N", "note": "[Amicarbazone]", "values": [{"measurement": "% Control", "setting": "Festuca arundinacea; amicarbazone 0.315 mg/ml alone", "result": 8.1, "unit": "%"}, {"measurement": "AVG Fresh Weight", "setting": "Festuca arundinacea; amicarbazone 0.315 mg/ml alone", "result": 2.3, "unit": "g"}, {"measurement": "% Control", "setting": "Festuca arundinacea; amicarbazone 1.228 mg/ml alone", "result": 10.2, "unit": "%"}, {"measurement": "AVG Fresh Weight", "setting": "Festuca arundinacea; amicarbazone 1.228 mg/ml alone", "result": 2.2, "unit": "g"}, {"measurement": "% Control", "setting": "Poa annua [4]; amicarbazone 1.53 mg/ml alone", "result": 39.4, "unit": "%"}, {"measurement": "Avg Fresh Weight", "setting": "Poa annua [4]; amicarbazone 1.53 mg/ml alone", "result": 0.57, "unit": "g"}, {"measurement": "% Control", "setting": "Poa annua [4]; amicarbazone 2.79 mg/ml alone", "result": 46.0, "unit": "%"}, {"measurement": "Avg Fresh Weight", "setting": "Poa annua [4]; amicarbazone 2.79 mg/ml alone", "result": 0.51, "unit": "g"}, {"measurement": "% Control", "setting": "Poa pratensis [5]; amicarbazone 0.31 mg/ml alone", "result": 0.0, "unit": "%"}, {"measurement": "AVG Fresh Weight", "setting": "Poa pratensis [5]; amicarbazone 0.31 mg/ml alone", "result": 0.84, "unit": "g"}, {"measurement": "% Control", "setting": "Poa pratensis [5]; amicarbazone 0.544 mg/ml alone", "result": 29.1, "unit": "%"}, {"measurement": "AVG Fresh Weight", "setting": "Poa pratensis [5]; amicarbazone 0.544 mg/ml alone", "result": 0.56, "unit": "g"}, {"measurement": "% Control", "setting": "Lolium perenne; amicarbazone 1.03 mg/ml alone", "result": 30.9, "unit": "%"}, {"measurement": "AVG Fresh Weight", "setting": "Lolium perenne; amicarbazone 1.03 mg/ml alone", "result": 0.96, "unit": "g"}, {"measurement": "% Control", "setting": "Lolium perenne; amicarbazone 1.903 mg/ml alone", "result": 35.7, "unit": "%"}, {"measurement": "AVG Fresh Weight", "setting": "Lolium perenne; amicarbazone 1.903 mg/ml alone", "result": 0.89, "unit": "g"}, {"measurement": "% Control", "setting": "Agrostis stolonifera [6]; amicarbazone 0.251 mg/ml alone", "result": 19.6, "unit": "%"}, {"measurement": "AVG Fresh Weight", "setting": "Agrostis stolonifera [6]; amicarbazone 0.251 mg/ml alone", "result": 0.56, "unit": "g"}, {"measurement": "% Control", "setting": "Agrostis stolonifera [6]; amicarbazone 0.481 mg/ml alone", "result": 29.7, "unit": "%"}, {"measurement": "AVG Fresh Weight", "setting": "Agrostis stolonifera [6]; amicarbazone 0.481 mg/ml alone", "result": 0.49, "unit": "g"}]}]}
